Experiment: Subcutaneous trial in males: vomiting
Format: in vivo, human
Conditions: intramuscular ondansetron
Experimental: In a trial in males, 1 of 6 subjects at the 5-mg dose level, 1 of 6 subjects at the 7.5 mg dose level, and 3 of 6 subjects at the 10-mg dose level experienced vomiting that was mild or moderate in intensity and delayed 6 to 15 hours.

Cc1nccn1CC1CCc2c(c3ccccc3n2C)C1=O (stereo not shown) [ondansetron, reference compound]
Resolution of bremelanotide-associated vomiting: Vomiting could be resolved

Reference: patent publication US9352013B2, “Uses of bremelanotide in therapy for female sexual dysfunction” (Palatin Technologies, Inc., priority 2012, dated 2016)
